Data published in patent US6956043B2, “Pharmaceutical compositions comprising 33-epi-chloro-33-desoxy-ascomycin solid dispersions” (Novartis AG, priority 1995, dated 2005).

Assays:
[1] = Relative bioavailability study in fasted beagle dogs; type: in vivo; conditions: 1 mg/kg, hard gelatin capsules each containing 10 mg compound X
Experimental: Hard gelatin capsules each containing 10 mg compound X were administered to 8 dogs in a 4-way latin square design; the dogs were fed 6 hours post administration of the capsules, and blood levels of compound X were determined over 48 hours.

Dissolution rate test = type: physicochemical; conditions: stirring in 0.2 wt % sodium dodecylsulfate in water at 37° C., 10 mg compound Y, after 30 minutes
Experimental: Forms E, F and G are tested for respective dissolution rates. […] 92% available compound Y is released from Form E. This compares with approximately 5% release after 30 minutes from an equivalent amount of crystalline compound Y.

| Structure (SMILES) | Median peak levels [1] | median AUC levels of 0-48 hr [1] | available compound Y released and dissolved (Dissolution rate test) |
| --- | --- | --- | --- |
| CO[C@H]1C[C@@H]2CC[C@@H](C)[C@@](O)(O2)C(=O)C(=O)N2CCCC[C@H]2C(=O)O[C@H]([C@H](C)C[C@@H]2CC[C@@H](OCCO)[C@H](OC)C2)CC(=O)[C@H](C)/C=C(\C)[C@@H](O)[C@@H](OC)C(=O)[C@H](C)C[C@H](C)/C=C/C=C/C=C/1C [Compound X, 40-O-(2-hydroxy)ethyl rapamycin] | 140 ng/mL | ca. 1600 ng.h/ml |  |
| CC[C@@H]1/C=C(\C)C[C@H](C)C[C@H](OC)[C@H]2O[C@@](O)(C(=O)C(=O)N3CCCC[C@H]3C(=O)O[C@H](/C(C)=C/[C@@H]3CC[C@H](Cl)[C@H](OC)C3)[C@H](C)[C@@H](O)CC1=O)[C@H](C)C[C@@H]2OC [crystalline compound Y, 33-epi-chloro-33-desoxy-ascomycin] |  |  | approximately 5% |
